Broadly, the EC50 is the concentration needed to bring the measured effect to its halfway point.

Bounds are passed on as bounds.

The assay concerns Human RSV-A (“Long” strain). Kind of assay: RSV in vitro cytoprotection assay (CPE, ATPlite) in HEp-2 cells. Particulars: human respiratory syncytial virus, 96 h; HEp-2 cells, 4-day incubation, ATPlite readout; read-out: Human RSV-A (“Long” strain) EC50. The class given is cell-based. The method in brief:
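HEp-2 cells (8,000/well) given 2-fold serial compound dilutions in duplicate, then infected with sucrose-stabilised RSV-A Long stock. After 4 days, cell viability read by ATPlite luminescence, with a parallel uninfected plate for cytotoxicity. EC50 binned A<0.01 μM, B 0.01-0.05 μM, C>0.05 μM.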
For orientation: Cellular ATP, detected with luciferase, serves as a proxy for viable cell number.
As for `Cc1cnc(N2CC3(CCOCC3)C2)c(C(=O)Nc2ccc(C(=O)N3CCc4c(sc(C(=O)Nc5c(C)cccc5F)c4F)-c4ccccc43)cc2)c1` [Example 95], the EC50 was below 10 nM.

As to `Cc1cnc(N2CC3(CCOCC3)C2)c(C(=O)Nc2ccc(C(=O)N3CCc4cc(-c5ncc(C)[nH]5)sc4-c4ccc(F)cc43)cc2)c1` [Example 187], the EC50 was below 10 nM.

Regarding `Cc1cnc(N2CC3(CCOCC3)C2)c(C(=O)Nc2ccc(C(=O)N3CCc4cc(-c5nc(C)cs5)sc4-c4ccc(F)cc43)cc2)c1` [Example 152], the EC50 is 10 to 50 nM.

In the case of `Cc1ccc(C(=O)Nc2ccc(C(=O)N3CCc4cc(-c5nc6cccc(F)c6[nH]5)sc4-c4ccc(F)cc43)cc2)c(N2CC3(CCOCC3)C2)n1` [Example 149], the EC50 was below 10 nM.

In the case of `O=C(Nc1ccc(C(=O)N2CCc3cc(-c4nnco4)sc3-c3ccc(F)cc32)cc1)c1cccnc1N1CC2(CCOCC2)C1` [Example 142], the EC50 was above 50 nM.

Regarding `Cc1cnc(N2CC3(CCOCC3)C2)c(C(=O)Nc2ccc(C(=O)N3CCc4c(sc(C(=O)Nc5cccc(F)c5F)c4F)-c4ccccc43)cc2)c1` [Example 216], the EC50 was below 10 nM.

Take `Cc1cnc(N2CC3(CCOCC3)C2)c(C(=O)Nc2ccc(C(=O)N3CCc4c(sc(C(=O)Nc5c(F)cccc5C(F)(F)F)c4F)-c4ccccc43)cc2)c1` [Example 200]: the EC50 was below 10 nM.

Regarding `Cc1ccc(C(=O)Nc2ccc(C(=O)N3CCc4c(sc(NC(=O)c5ccccc5F)c4F)-c4ccccc43)cc2)c(N2CC3(CCOCC3)C2)n1` [Example 311], the EC50 is 10 to 50 nM.

`O=C(Nc1c(F)cccc1F)c1nc2c(s1)-c1ccccc1N(C(=O)c1ccc(NC(=O)c3cccnc3N3CC4(CCOCC4)C3)cc1)CC2` [Example 104]: the EC50 was below 10 nM.

Turning to `Cc1ccc(C(=O)Nc2ccc(C(=O)N3CCc4c(sc(C(=O)Nc5c(F)cccc5F)c4F)-c4ccccc43)cc2)c(N2CC3(CCOCC3)C2)n1` [Example 213], the EC50 is below 10 nM.

As to `O=C(Nc1c(F)cc(F)cc1Cl)c1cc2c(s1)-c1ccc(F)cc1N(C(=O)c1ccc(NC(=O)c3cc(C(F)(F)F)cnc3N3CC4(CCOCC4)C3)cc1)CC2` [Example 29], the EC50 was in the range of 10 to 50 nM.

Take `O=C(Nc1c(F)cc(F)cc1Cl)c1cc2c(s1)-c1ccc(F)cc1N(C(=O)c1ccc(NC(=O)c3cc(F)cnc3N3CC4(CCOCC4)C3)cc1)CC2` [Example 26]: the concentration giving a half-maximal response (EC50) was below 10 nM.

For the molecule `O=C(Nc1ccc(C(=O)N2CCc3nc(-c4nc5ccccc5[nH]4)oc3-c3ccccc32)cc1)c1cccnc1N1CC2(CCOCC2)C1` [Example 109], the EC50 was 10 to 50 nM.

As to `Cc1cnc(N2CC3(CCOCC3)C2)c(C(=O)Nc2ccc(C(=O)N3CCc4c(sc(C(=O)Nc5ccccc5)c4F)-c4ccccc43)cc2)c1` [Example 211], the EC50 is below 10 nM.

Regarding `Cc1cnc(N2CC3(CCOCC3)C2)c(C(=O)Nc2ccc(C(=O)N3CCc4c(sc(C(=O)Nc5cccc(F)c5)c4F)-c4ccccc43)cc2)c1` [Example 210], the EC50 is below 10 nM.

Turning to `Cc1cnc(N2CC3(CCOCC3)C2)c(C(=O)Nc2ccc(C(=O)N3CCc4c(sc(C(=O)Nc5ncccc5C)c4F)-c4ccccc43)cc2)c1` [Example 226], the EC50 is below 10 nM.

As for `O=C(Nc1ccc(C(=O)N2CCc3cc(-c4nc5ccccc5[nH]4)oc3-c3ccccc32)cc1)c1cc2c(nc1N1CC3(CCOCC3)C1)CCC2` [Example 260], the EC50 was below 10 nM.

For `Cc1cnc(N2CC3(CCOCC3)C2)c(C(=O)Nc2ccc(C(=O)N3CCc4c(sc(C(=O)Nc5ccc(F)cc5)c4F)-c4ccccc43)cc2)c1` [Example 217], the EC50 is below 10 nM.

Take `Cc1cnc(N2CC3(CCOCC3)C2)c(C(=O)Nc2ccc(C(=O)N3CCc4sc(-c5nc6ccccc6[nH]5)cc4-c4ccccc43)cc2)c1` [Example 262]: the EC50 fell in the range of 10 to 50 nM.

Take `Cc1cnc(N2CC3(CCOCC3)C2)c(C(=O)Nc2ccc(C(=O)N3CCc4cc(C(=O)Nc5c(F)cccc5F)oc4-c4ccc(F)cc43)cc2)c1` [Example 234]: the EC50 was below 10 nM.

As for `Cc1ccc(C(=O)Nc2ccc(C(=O)N3CCc4cc(NC(=O)OCC(F)(F)F)sc4-c4ccccc43)cc2)c(N2CC3(CCOCC3)C2)n1` [Example 301], the EC50 lay in the range of 10 to 50 nM.

In the case of `Cc1cnc(N2CC3(CCOCC3)C2)c(C(=O)Nc2ccc(C(=O)N3CCc4c(sc(-c5nc6cccc(F)c6[nH]5)c4F)-c4ccccc43)cc2)c1` [Example 206], the EC50 was below 10 nM.

Consider `Cc1cnc(N2CC3(CCOCC3)C2)c(C(=O)Nc2ccc(C(=O)N3CCc4c(sc(C(=O)Nc5c(C)cccc5F)c4Cl)-c4ccccc43)cc2)c1` [Example 268], for which the EC50 was below 10 nM.

As for `O=C(Nc1c(F)cc(F)cc1Cl)c1cc2c(s1)-c1ccc(F)cc1N(C(=O)c1ccc(NC(=O)c3cc(-c4cccs4)cnc3N3CC4(CCOCC4)C3)cc1)CC2` [Example 28], the EC50 was in the range of 10 to 50 nM.

Take `Cc1cnc(N2CC3(CCOCC3)C2)c(C(=O)Nc2ccc(C(=O)N3CCc4cc(NC(=O)OC5CCC5)sc4-c4ccccc43)cc2)c1` [Example 292]: the EC50 is below 10 nM.

Turning to `Cc1ccc(C(=O)Nc2ccc(C(=O)N3CCc4cc(C(=O)Nc5c(C)cccc5C)sc4-c4ccc(F)cc43)cc2)c(N2CC3(CCOCC3)C2)n1` [Example 116], the EC50 was below 10 nM.

As to `CCOCCN(C)c1ncccc1C(=O)Nc1ccc(C(=O)N2CCc3cc(C(=O)Nc4c(F)cccc4F)sc3-c3ccc(F)cc32)cc1` [Example 55], the EC50 is above 50 nM.

For the molecule `O=C(Nc1c(F)cc(F)cc1Cl)c1cc2c(s1)-c1ccc(F)cc1N(C(=O)c1ccc(NC(=O)c3cc4c(nc3N3CC5(CCOCC5)C3)CCC4)cc1)CC2` [Example 66], the EC50 was below 10 nM.

On to `O=C(Nc1c(F)cccc1F)c1cc2c(s1)-c1ccc(F)cc1N(C(=O)c1ccc(NC(=O)c3cccnc3-c3ccncc3)cc1)CC2` [Example 63], for which the EC50 is above 50 nM.

`O=C(Nc1ccc(C(=O)N2CCc3cc(-c4nc5cccc(Cl)c5[nH]4)sc3-c3ccc(F)cc32)cc1)c1cc(F)cnc1N1CC2(CCOCC2)C1` [Example 44]: the EC50 lay within 10 to 50 nM.

For the molecule `O=C(Nc1c(F)cc(F)cc1F)c1cc2c(s1)-c1ccc(F)cc1N(C(=O)c1ccc(NC(=O)c3cc4ccccc4nc3N3CC4(CCOCC4)C3)cc1)CC2` [Example 15], the EC50 was below 10 nM.

Take `Cc1cnc(N2CC3(CCOCC3)C2)c(C(=O)Nc2ccc(C(=O)N3CCc4c(sc(NC(=O)c5c(F)cccc5F)c4F)-c4ccccc43)cc2)c1` [Example 304]: the EC50 is below 10 nM.

As for `Cc1cnc(N2CC3(CCOCC3)C2)c(C(=O)Nc2ccc(C(=O)N3CCc4c(sc(C(=O)Nc5nc(C)ccc5F)c4F)-c4ccccc43)cc2)c1` [Example 219], the EC50 was below 10 nM.

Consider `Cc1cnc(N2CC3(CCOCC3)C2)c(C(=O)Nc2ccc(C(=O)N3CCc4c(sc(C(=O)Nc5ncc(C(F)(F)F)s5)c4F)-c4ccccc43)cc2)c1` [Example 225], for which the EC50 was above 50 nM.

Consider `Cc1cnc(N2CC3(CCOCC3)C2)c(C(=O)Nc2ccc(C(=O)N3CCc4cc(C(=O)Nc5c(C)cccc5C#N)sc4-c4ccc(F)cc43)cc2)c1` [Example 11], for which the EC50 is below 10 nM.

On to `Cc1cnc(N2CC3(CCOCC3)C2)c(C(=O)Nc2ccc(C(=O)N3CCc4cc(-c5cnsc5)sc4-c4ccc(F)cc43)cc2)c1` [Example 192], for which the EC50 is below 10 nM.

As to `O=C(Nc1c(F)cccc1F)c1cc2c(s1)-c1ccc(F)cc1N(C(=O)c1ccc(NC(=O)c3cc4ccccc4nc3N3CC4(CCOCC4)C3)cc1)CC2` [Example 16], the EC50 is below 10 nM.

`Cc1cnc(N2CC3(CCOCC3)C2)c(C(=O)Nc2ccc(C(=O)N3CCc4cc(C(=O)Nc5nnc(C)s5)sc4-c4ccc(F)cc43)cc2)c1` [Example 133]: the EC50 lay in the range of 10 to 50 nM.

`O=C(Nc1c(F)cccc1Cl)c1cc2c(s1)-c1ccc(F)cc1N(C(=O)c1ccc(NC(=O)c3cc(F)cnc3N3CC4(CCOCC4)C3)cc1)CC2` [Example 37]: the EC50 was below 10 nM.

`O=C(Nc1c(Cl)cccc1Cl)c1cc2c(o1)-c1ccc(F)cc1N(C(=O)c1ccc(NC(=O)c3cc4c(nc3N3CC5(CCOCC5)C3)CCCC4)cc1)CC2` [Example 242]: the EC50 is below 10 nM.

As for `O=C(Nc1ccc(C(=O)N2CCc3c(sc(C(=O)Nc4c(F)cccc4F)c3F)-c3ccccc32)cc1)c1cc2c(nc1N1CC3(CCOCC3)C1)CCC2` [Example 233], the EC50 is below 10 nM.

In the case of `O=C(Nc1c(F)cccc1F)c1cc2c(s1)-c1ccc(F)cc1N(C(=O)c1ccc(NC(=O)c3cccnc3-c3c[nH]c4ccncc34)cc1)CC2` [Example 64], the EC50 was above 50 nM.

In the case of `Cc1cnc(N2CC3(CCOCC3)C2)c(C(=O)Nc2ccc(C(=O)N3CCc4cc(-c5nc(C)c(C)s5)sc4-c4ccc(F)cc43)cc2)c1` [Example 153], the EC50 was 10 to 50 nM.

As for `Cc1cnc(N2CC3(CCOCC3)C2)c(C(=O)Nc2ccc(C(=O)N3CCc4cc(C(=O)NC5CCS(=O)(=O)CC5)sc4-c4ccc(F)cc43)cc2)c1` [Example 122], the EC50 is above 50 nM.

For `Cc1cnc(N2CC3(CCOCC3)C2)c(C(=O)Nc2ccc(C(=O)N3CCc4cc(-c5nc(C)co5)sc4-c4ccc(F)cc43)cc2)c1` [Example 157], the half-maximal effective concentration (EC50) lay in the range of 10 to 50 nM.

Consider `O=C(Nc1ccc(C(=O)N2CCc3cc(-c4nc5ccccc5[nH]4)sc3-c3ccc(F)cc32)cc1)c1cc2c(nc1N1CC3(CCOCC3)C1)CCC2` [Example 68], for which the EC50 was in the range of 10 to 50 nM.

`Cc1cnc(N2CC3(CCOCC3)C2)c(C(=O)Nc2ccc(C(=O)N3CCc4cc(NC(=O)c5c(C)cccc5F)sc4-c4ccccc43)cc2)c1` [Example 281]: the EC50 lay in the range of 10 to 50 nM.

As for `O=C(Nc1c(F)cccc1F)c1cc2c(s1)-c1cc(F)c(F)cc1N(C(=O)c1ccc(NC(=O)c3cc(F)cnc3N3CC4(CCOCC4)C3)cc1)CC2` [Example 73], the EC50 is 10 to 50 nM.

Regarding `Cc1cnc(N2CC3(CCOCC3)C2)c(C(=O)Nc2ccc(C(=O)N3CCc4cc(C(=O)Nc5c(F)cc(F)cc5Cl)oc4-c4ccc(F)cc43)cc2)c1` [Example 235], the EC50 is below 10 nM.

Consider `O=C(Nc1c(F)cccc1C(F)(F)F)c1cc2c(s1)-c1cc(F)c(F)cc1N(C(=O)c1ccc(NC(=O)c3cc(F)cnc3N3CC4(CCOCC4)C3)cc1)CC2` [Example 75], for which the EC50 is 10 to 50 nM.
